Tests used:
Type in all cases: cell-based
Jurkat = assay: MTT assay, Jurkat cells; details: Homo sapiens, 24 h, read-out: Viability rate
Nalm-6 = assay: MTT assay, Nalm-6 cells; details: Homo sapiens, 24 h, MTT, read-out: Viability rate
[1] = test system: K562, Nalm-6, Molt-4, Reh, Jurkat, Hek293T cell lines; assay: MTT assay, overall judgement over all cell lines; details: overall judgement in words; for 6 and 10: on all cell lines, except Reh
How it was run: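 MTT viability assay run across a range of compound concentrations in leukemic lines, BCR-ABL positive K562 and BCR-ABL negative Nalm-6, Molt-4, Reh, Jurkat, plus non-leukemic Hek293T. Viability rate calculated per concentration.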

K562 = assay: MTT assay, K562 cells; details: Homo sapiens, 24 h, MTT, read-out: Viability rate
[2] = MTT assay, Hek293T non-leukemic control cells; details: human, read-out: Viability rate
Reh = assay: MTT assay, Reh cells; details: Homo sapiens, 24 h, read-out: Viability rate
Molt-4 = assay: MTT assay, Molt-4 cells; details: Homo sapiens, MOLT-4, 24 h, read-out: Viability rate

Cc1ccnc(Nc2cc(NC(=O)c3ccc(CN4CCOCC4)cc3)ccc2C)n1 [Compound 8, N-(4-Methyl-3-((4-methylpyrimidin-2-yl)amino)phenyl)-4-(morhpolinomethyl)benzamide]
viability at 0.3 µM (Jurkat; 0.3 μM): 81.7 ± 0.08% | viability at 0.5 µM (Jurkat; 0.5 μM): 78.7 ± 0.03% | viability at 1 µM (Jurkat; 1 μM): 75.8 ± 0.04% | viability at 3 µM (Jurkat; 3 μM): 76.8 ± 0.04% | viability at 5 µM (Jurkat; 5 μM): 78.8 ± 0.02% | viability at 10 µM (Jurkat; 10 μM): 78.5 ± 0.05% | viability at 15 µM (Jurkat; 15 μM): 77.6 ± 0.05% | viability at 20 µM (Jurkat; 20 μM): 77.6 ± 0.04% | viability at 30 µM (Jurkat; 30 μM): 66.1 ± 0.07% | viability at 50 µM (Jurkat; 50 μM): 65.4 ± 0.03% | viability at 70 µM (Jurkat; 70 μM): 65.3 ± 0.04% | viability at 100 µM (Jurkat; 100 μM): 63 ± 0.02% | viability at 150 µM (Jurkat; 150 μM): 62.4 ± 0.08% | viability at 200 µM (Jurkat; 200 μM): 62.3 ± 0.05% | viability at 0.3 µM (Nalm-6; Nalm-6, 0.3 μM): 102.8 ± 0.04% | viability at 0.5 µM (Nalm-6; Nalm-6, 0.5 μM): 101.8 ± 0.04% | viability at 1 µM (Nalm-6; Nalm-6, 1 μM): 102.7 ± 0.02% | viability at 3 µM (Nalm-6; Nalm-6, 3 μM): 99.6 ± 0.04% | viability at 5 µM (Nalm-6; Nalm-6, 5 μM): 102.5 ± 0.02% | viability at 10 µM (Nalm-6; Nalm-6, 10 μM): 100.6 ± 0.03% | viability at 15 µM (Nalm-6; Nalm-6, 15 μM): 100 ± 0.03% | viability at 20 µM (Nalm-6; Nalm-6, 20 μM): 94.2 ± 0.07% | viability at 30 µM (Nalm-6; Nalm-6, 30 μM): 95.9 ± 0.07% | viability at 50 µM (Nalm-6; Nalm-6, 50 μM): 91.9 ± 0.06% | viability at 70 µM (Nalm-6; Nalm-6, 70 μM): 87.7 ± 0.02% | viability at 100 µM (Nalm-6; Nalm-6, 100 μM): 87.4 ± 0.02% | viability at 150 µM (Nalm-6; Nalm-6, 150 μM): 81.3 ± 0.02% | viability at 200 µM (Nalm-6; Nalm-6, 200 μM): 70.8 ± 0.01% | anticancer activity according to MTT assay results [1]: relatively lower activity | viability at 0.3 µM (K562; K562, 0.3 μM): 86.2 ± 0.09% | viability at 0.5 µM (K562; K562, 0.5 μM): 85.3 ± 0.03% | viability at 1 µM (K562; K562, 1 μM): 84.7 ± 0.05% | viability at 3 µM (K562; K562, 3 μM): 84.7 ± 0.06% | viability at 5 µM (K562; K562, 5 μM): 76.8 ± 0.11% | viability at 10 µM (K562; K562, 10 μM): 76.7 ± 0.05% | viability at 15 µM (K562; K562, 15 μM): 76.7 ± 0.08% | viability at 20 µM (K562; K562, 20 μM): 76.6 ± 0.04% | viability at 30 µM (K562; K562, 30 μM): 75.6 ± 0.09% | viability at 50 µM (K562; K562, 50 μM): 72.5 ± 0.07% | viability at 70 µM (K562; K562, 70 μM): 72.6 ± 0.08% | viability at 100 µM (K562; K562, 100 μM): 66.4 ± 0.02% | viability at 150 µM (K562; K562, 150 μM): 65.3 ± 0.06% | viability at 200 µM (K562; K562, 200 μM): 65.2 ± 0.06% | viability at 24 h, 0.3 µM ([2]; Hek293T cells (non-leukemic control cell line), 0.3 μM): 95.7 ± 0.03% | viability at 24 h, 0.5 µM ([2]; Hek293T cells (non-leukemic control cell line), 0.5 μM): 94.8 ± 0.07% | viability at 24 h, 3 µM ([2]; Hek293T cells (non-leukemic control cell line), 3 μM): 92.9 ± 0.04% | viability at 24 h, 5 µM ([2]; Hek293T cells (non-leukemic control cell line), 5 μM): 91.2 ± 0.09% | viability at 24 h, 10 µM ([2]; Hek293T cells (non-leukemic control cell line), 10 μM): 90.8 ± 0.05% | viability at 24 h, 15 µM ([2]; Hek293T cells (non-leukemic control cell line), 15 μM): 90.1 ± 0.07% | viability at 24 h, 20 µM ([2]; Hek293T cells (non-leukemic control cell line), 20 μM): 90 ± 0.04% | viability at 24 h, 30 µM ([2]; Hek293T cells (non-leukemic control cell line), 30 μM): 84.9 ± 0.04% | viability at 24 h, 50 µM ([2]; Hek293T cells (non-leukemic control cell line), 50 μM): 81.3 ± 0.02% | viability at 24 h, 70 µM ([2]; Hek293T cells (non-leukemic control cell line), 70 μM): 66.9 ± 0.02% | viability at 24 h, 100 µM ([2]; Hek293T cells (non-leukemic control cell line), 100 μM): 66.4 ± 0.03% | viability at 24 h, 150 µM ([2]; Hek293T cells (non-leukemic control cell line), 150 μM): 59.4 ± 0.01% | viability at 24 h, 200 µM ([2]; Hek293T cells (non-leukemic control cell line), 200 μM): 58.2 ± 0.01% | viability at 24 h, 1 µM ([2]; Hek293T cells, 1 μM): 94.3 ± 0.06% | viability at 0.3 µM (Reh; 0.3 μM): 100.8 ± 0.03% | viability at 0.5 µM (Reh; 0.5 μM): 102.4 ± 0.02% | viability at 1 µM (Reh; 1 μM): 102 ± 0.01% | viability at 3 µM (Reh; 3 μM): 104.8 ± 0.02% | viability at 5 µM (Reh; 5 μM): 103.5 ± 0.01% | viability at 10 µM (Reh; 10 μM): 103.1 ± 0.01% | viability at 15 µM (Reh; 15 μM): 100.3 ± 0.01% | viability at 20 µM (Reh; 20 μM): 100.6 ± 0.02% | viability at 30 µM (Reh; 30 μM): 102.4 ± 0.04% | viability at 50 µM (Reh; 50 μM): 99.4 ± 0.02% | viability at 70 µM (Reh; 70 μM): 94.2 ± 0.03% | viability at 100 µM (Reh; 100 μM): 91.1 ± 0.01% | viability at 150 µM (Reh; 150 μM): 91.1 ± 0.02% | viability at 200 µM (Reh; 200 μM): 91.2 ± 0.04% | viability at 0.3 µM (Molt-4; Molt-4, 0.3 μM): 98.5 ± 0.09% | viability at 0.5 µM (Molt-4; Molt-4, 0.5 μM): 98.5 ± 0.11% | viability at 1 µM (Molt-4; Molt-4, 1 μM): 95.4 ± 0.11% | viability at 3 µM (Molt-4; Molt-4, 3 μM): 89.2 ± 0.07% | viability at 5 µM (Molt-4; Molt-4, 5 μM): 90.7 ± 0.07% | viability at 10 µM (Molt-4; Molt-4, 10 μM): 90.4 ± 0.07% | viability at 15 µM (Molt-4; Molt-4, 15 μM): 90.8 ± 0.05% | viability at 20 µM (Molt-4; Molt-4, 20 μM): 88.3 ± 0.04% | viability at 30 µM (Molt-4; Molt-4, 30 μM): 85.8 ± 0.04% | viability at 50 µM (Molt-4; Molt-4, 50 μM): 83.6 ± 0.02% | viability at 70 µM (Molt-4; Molt-4, 70 μM): 82.6 ± 0.09% | viability at 100 µM (Molt-4; Molt-4, 100 μM): 81.5 ± 0.09% | viability at 150 µM (Molt-4; Molt-4, 150 μM): 78.9 ± 0.05% | viability at 200 µM (Molt-4; Molt-4, 200 μM): 78.8 ± 0.07%
